The target of this test is T1, Human pyruvate kinase R (PKR) (Homo sapiens, UniProt P30613).
T1 construct: Human pyruvate kinase R (PKR), residues 14-574; 6x-His (N, cleaved yes); 8x-Arg (N, cleaved yes); SUMO (N, cleaved yes); host or cells: E. coli
Put plainly: Biochemical assay for activation of pyruvate kinase R (Kinase-Glo luminescence measurement of ATP generation). Conditions: for AC50: PKR biochemical assay, 0.1 nM PKR, 0.3 mM ADP, 2 mM FBP, 0.1 mM PEP; for Emax: maximal activation level relative to the activation level achieved by the literature compound AG-348 @ 10 μM. Here is the method: Human pyruvate kinase R (PKR), residues 14-574, and human pyruvate kinase M2, residues 1-531, were cloned into expression plasmids and obtained from ATUM Bio (Newark, Calif.). Proteins were translated as fusions with 6×-His, 8×-Arg, and SUMO at the N-terminus. A third construct of human PKR was truncated, residues 50-574, and similarly cloned for use in crystallography experiments. All proteins were cloned, expressed in E. coli, and purified using similar protocols. Cells were grown at 30° C. in Luria-Bertani broth supplemented with 0.4% glucose to OD600=0.8 and induced with 0.4 mM IPTG at 16° C. for 18 hours. Cells were harvested by centrifugation, resuspended in 50 mM potassium phosphate pH 8.0, 500 mM NaCl, 25 mM imidazole pH 8.0, and 3 mM (3-mercaptoethanol. Cells were lysed using a LM20 microfluidizer from Microfluidics (Westwood, Mass.). The crude lysate was immediately supplemented with 0.2 mM phenylmethylsulfonyl fluoride (PMSF) and centrifuged at 20,000 g for 20 minutes. The soluble fraction was subsequently incubated with 2 mL Ni-NTA (GE Healthcare) per 1,000 ODs for 1 hour at 4° C. Following incubation with the Ni-NTA resin, lysate was removed by pelleting resin at 2,500 g for 3 minutes and washed 3 times with 9 bed volumes of 50 mM potassium phosphate pH 8.0, 500 mM NaCl, 25 mM imidazole, and 3 mM 3-mercaptoethanol. Following the batch wash Ni-NTA resin was loaded onto a gravity column and His-tagged protein was eluted with 6 bed volumes of 10 mM Tris/HCl pH 8.0, 200 mM NaCl, 500 mM imidazole, and 3 mM (3-mercaptoethanol. Eluted protein was dialyzed overnight against 10 mM Tris/HCl pH 8.0, 200 mM NaCl, and 1 mM DTT and the 6×-His-8×-Arg-SUMO-tag was cleaved using a 20:1 molar ratio of protein:3C protease. The protein was purified by anion exchange chromatography on a HiTrapQ or MonoQ 10/100 GL column (GE Healthcare) via a linear NaCl gradient and twice by size exclusion chromatography using a Superdex S200 26/60 column (GE Healthcare) run in 10 mM Tris/HCl pH 8.0, 200 mM NaCl, 10 mM MgCl2, 1 mM DTT. Proteins were concentrated to −12 mg/mL for crystallization and flash frozen for storage.
Biochemical Assay for Activation of Pyruvate Kinase R
Activation of pyruvate kinase R (PKR) and pyruvate kinase M2 (PKM2) were measured using a luminescence based measurement of ATP generation and the Kinase-Glo luminescent kinase reagent kit.

T1 sequence (P30613 14-574): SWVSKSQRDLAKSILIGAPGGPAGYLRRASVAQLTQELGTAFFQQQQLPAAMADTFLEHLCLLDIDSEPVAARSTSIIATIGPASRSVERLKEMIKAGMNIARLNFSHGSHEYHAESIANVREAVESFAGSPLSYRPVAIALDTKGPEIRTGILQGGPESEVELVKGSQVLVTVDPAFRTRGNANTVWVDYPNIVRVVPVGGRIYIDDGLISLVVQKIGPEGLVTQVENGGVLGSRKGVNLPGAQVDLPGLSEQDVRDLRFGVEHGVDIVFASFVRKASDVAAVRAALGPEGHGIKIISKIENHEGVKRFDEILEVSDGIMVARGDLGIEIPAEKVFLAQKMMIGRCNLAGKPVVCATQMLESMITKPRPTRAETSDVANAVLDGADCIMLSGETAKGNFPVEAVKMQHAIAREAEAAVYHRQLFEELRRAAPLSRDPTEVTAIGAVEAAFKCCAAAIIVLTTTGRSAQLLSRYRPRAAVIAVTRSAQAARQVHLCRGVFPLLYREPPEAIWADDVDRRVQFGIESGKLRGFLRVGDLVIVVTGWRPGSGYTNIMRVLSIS

Broadly, the AC50 is the concentration giving half of the maximal activity seen. For orientation: Emax means the size of the effect at its maximum, as opposed to the concentration needed. Regarding `O=C(NCc1nnnn1-c1ccc(Cl)cc1)NCc1nnnn1-c1ccc(Cl)cc1` [Compound 1, 1,3-bis({[1-(4-chlorophenyl)-1H-1,2,3,4-tetrazol-5-yl]methyl})urea], the concentration at half-maximal activity (AC50) amounted to 189 nM and the maximal effect (Emax) is 96%.
In the same order, the values of `O=C(NCc1nnnn1-c1cccc(Cl)c1)NCc1nnnn1-c1cccc(Cl)c1` [Compound 2, 1,3-bis({[1-(3-chlorophenyl)-1H-1,2,3,4-tetrazol-5-yl]methyl})urea] are 530 nM and 69%.
As to `O=C1N(Cc2nnnn2-c2ccc(Cl)cc2)CCCN1Cc1nnnn1-c1ccc(Cl)cc1` [Compound 3, 1,3-bis({[1-(4-chlorophenyl)-1H-1,2,3,4-tetrazol-5-yl]methyl})-1,3-diazinan-2-one], the activity was half-maximal at 6000 nM (AC50) and the maximum response (Emax) turned out to be 53%.
Compound `O=C1N(Cc2nnnn2-c2ccc(Cl)c(F)c2)CCCN1Cc1nnnn1-c1ccc(Cl)c(F)c1` [Compound 4, 1,3-bis({[1-(4-chloro-3-fluorophenyl)-1H-1,2,3,4-tetrazol-5-yl]methyl})-1,3-diazinan-2-one] showed a half-maximal activity concentration (AC50) of 1200 nM and an Emax of 80%.
Consider `O=C(NCc1ncnn1-c1ccc(Cl)c(F)c1)NCc1ncnn1C1CCOCC1` [Compound 5, 3-{[1-(4-chloro-3-fluorophenyl)-1H-1,2,4-triazol-5-yl]methyl}-1-{[1-(oxan-4-yl)-1H-1,2,4-triazol-5-yl]methyl}urea], for which the concentration at half-maximal activity (AC50) was 420 nM and the Emax amounted to 47%.
In the case of `O=C1N(Cc2ncnn2-c2ccc(Cl)c(F)c2)CCCN1Cc1ncnn1-c1ccc(Cl)c(F)c1` [Compound 6, 1,3-bis({[1-(4-chloro-3-fluorophenyl)-1H-1,2,4-triazol-5-yl]methyl})-1,3-diazinan-2-one], the AC50 came out at 5.4 nM and the maximum response (Emax) was 33%.
As to `O=C(NCc1ncnn1CC1CCOCC1)NCc1ncnn1-c1ccc(Cl)c(F)c1` [Compound 7, 3-{[1-(4-chloro-3-fluorophenyl)-1H-1,2,4-triazol-5-yl]methyl}-1-({1-[(oxan-4-yl)methyl]-1H-1,2,4-triazol-5-yl}methyl)urea], the half-maximal activity concentration (AC50) was 44 nM and the Emax turned out to be 46%.
On to `CCN(Cc1ncnn1-c1ccc(Cl)c(F)c1)C(=O)NCc1ncnn1CC1CCOCC1` [Compound 8, 3-{[1-(4-chloro-3-fluorophenyl)-1H-1,2,4-triazol-5-yl]methyl}-3-ethyl-1-({1-[(oxan-4-yl)methyl]-1H-1,2,4-triazol-5-yl}methyl)urea], for which the half-maximal activity concentration (AC50) is 320 nM and the maximal effect (Emax) worked out at 59%.
Compound `CCN(Cc1ncnn1CC1CCOCC1)C(=O)NCc1ncnn1-c1ccc(Cl)c(F)c1` [Compound 9, 3-{[1-(4-chloro-3-fluorophenyl)-1H-1,2,4-triazol-5-yl]methyl}-1-ethyl-1-({1-[(oxan-4-yl)methyl]-1H-1,2,4-triazol-5-yl}methyl)urea] registered an AC50 of 120 nM and an Emax of 64%.
Take `Cc1nc(CNC(=O)NCc2ncnn2CC2CCOCC2)n(-c2ccc(Cl)c(F)c2)n1` [Compound 10, 3-{[1-(4-chloro-3-fluorophenyl)-3-methyl-1H-1,2,4-triazol-5-yl]methyl}-1-({1-[(oxan-4-yl)methyl]-1H-1,2,4-triazol-5-yl}methyl)urea]: half-maximal activity (AC50) was put at 80 nM and the Emax was 74%.
Turning to `CC1(Cn2ncnc2CNC(=O)NCc2ncnn2-c2ccc(Cl)c(F)c2)CCOCC1` [Compound 11, 3-{[1-(4-chloro-3-fluorophenyl)-1H-1,2,4-triazol-5-yl]methyl}-1-({1-[(4-methyloxan-4-yl)methyl]-1H-1,2,4-triazol-5-yl}methyl)urea], the AC50 turned out to be 88 nM and the Emax stood at 49%.
In turn, `Cc1nc(CNC(=O)NCc2ncnn2CC2(C)CCOCC2)n(-c2ccc(Cl)c(F)c2)n1` [Compound 12, 3-{[1-(4-chloro-3-fluorophenyl)-3-methyl-1H-1,2,4-triazol-5-yl]methyl}-1-({1-[(4-methyloxan-4-yl)methyl]-1H-1,2,4-triazol-5-yl}methyl)urea] showed a concentration at half-maximal activity (AC50) of 180 nM and a maximal effect (Emax) of 89%.
`CC1(C)CC(Cn2ncnc2CNC(=O)NCc2ncnn2-c2ccc(Cl)c(F)c2)CCO1` (stereo not shown) [Compound 13, 3-{[1-(4-chloro-3-fluorophenyl)-1H-1,2,4-triazol-5-yl]methyl}-1-({1-[(2,2-dimethyloxan-4-yl)methyl]-1H-1,2,4-triazol-5-yl}methyl)urea]: the concentration at half-maximal activity (AC50) is 1000 nM and the Emax came to 55%.
On the same counts, the results for `Cc1nc(CNC(=O)NCc2ncnn2CC2CCOC(C)(C)C2)n(-c2ccc(Cl)c(F)c2)n1` (stereo not shown) [Compound 14, 3-{[1-(4-chloro-3-fluorophenyl)-3-methyl-1H-1,2,4-triazol-5-yl]methyl}-1-({1-[(2,2-dimethyloxan-4-yl)methyl]-1H-1,2,4-triazol-5-yl}methyl)urea] are 1400 nM and 84%.
`O=C(NCc1ncnn1CC1CCOCC1)NCc1ncnn1-c1ccc2cccnc2c1` [Compound 15, 3-({1-[(oxan-4-yl)methyl]-1H-1,2,4-triazol-5-yl}methyl)-1-{[1-(quinolin-7-yl)-1H-1,2,4-triazol-5-yl]methyl}urea] yielded a concentration at half-maximal activity (AC50) of 310 nM and a maximal effect (Emax) of 57%.
Compound `Cc1nc(CNC(=O)NCc2ncnn2CC2CCCCC2)n(-c2ccc(Cl)c(F)c2)n1` [Compound 16, 3-{[1-(4-chloro-3-fluorophenyl)-3-methyl-1H-1,2,4-triazol-5-yl]methyl}-1-{[1-(cyclohexylmethyl)-1H-1,2,4-triazol-5-yl]methyl}urea] displayed an AC50 of 55 nM and a maximal response (Emax) of 93%.
The compound `Cc1nc(CNC(=O)NCc2ncnn2-c2ccc3scnc3c2)n(-c2ccc(Cl)c(F)c2)n1` [Compound 17, 1-{[1-(1,3-benzothiazol-5-yl)-1H-1,2,4-triazol-5-yl]methyl}-3-{[1-(4-chloro-3-fluorophenyl)-3-methyl-1H-1,2,4-triazol-5-yl]methyl}urea] displayed an AC50 of 13 nM and an Emax of 82%.
Turning to `Cc1nc(CNC(=O)NCc2ncnn2Cc2ccccc2)n(-c2ccc(Cl)c(F)c2)n1` [Compound 18, 1-[(1-benzyl-1H-1,2,4-triazol-5-yl)methyl]-3-{[1-(4-chloro-3-fluorophenyl)-3-methyl-1H-1,2,4-triazol-5-yl]methyl}urea], half-maximal activity (AC50) was put at 37 nM and the maximal response (Emax) came out at 85%.
In the same order, the values of `Cc1nc(CNC(=O)NCc2ncnn2Cc2ccc(F)cc2)n(-c2ccc(Cl)c(F)c2)n1` [Compound 20, 3-{[1-(4-chloro-3-fluorophenyl)-3-methyl-1H-1,2,4-triazol-5-yl]methyl}-1-({1-[(4-fluorophenyl)methyl]-1H-1,2,4-triazol-5-yl}methyl)urea] are 51 nM and 97%.
With `Cc1nc(CNC(=O)N(C)Cc2ncnn2-c2ccc3scnc3c2)n(-c2ccc(Cl)c(F)c2)n1` [Compound 22, 1-{[1-(1,3-benzothiazol-5-yl)-1H-1,2,4-triazol-5-yl]methyl}-3-{[1-(4-chloro-3-fluorophenyl)-3-methyl-1H-1,2,4-triazol-5-yl]methyl}-1-methylurea], the half-maximal activity concentration (AC50) came out at 33 nM and the Emax is 83%.
